In US20060276464A1, “Diarylsulfone sulfonamides and use thereof” (Wyeth, priority 2005, published 2006):
Like-named read-outs stand apart in the source and are kept apart here.

Legend:
SFRP-1 [1] = target: T1, SFRP-1 (Homo sapiens, UniProt Q8N474); assay: Fluorescence polarization binding assay (competitive displacement of a probe compound from SFRP-1); conditions: fluorescence anisotropy, 45 nM SFRP-1, 20 nM probe;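 note: test compound competes with a fluorescent probe held by SFRP-1, seen as a drop in probe anisotropy after incubation in darkness, with anisotropy as function of rising compound dose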
T1 sequence (Q8N474 32-314): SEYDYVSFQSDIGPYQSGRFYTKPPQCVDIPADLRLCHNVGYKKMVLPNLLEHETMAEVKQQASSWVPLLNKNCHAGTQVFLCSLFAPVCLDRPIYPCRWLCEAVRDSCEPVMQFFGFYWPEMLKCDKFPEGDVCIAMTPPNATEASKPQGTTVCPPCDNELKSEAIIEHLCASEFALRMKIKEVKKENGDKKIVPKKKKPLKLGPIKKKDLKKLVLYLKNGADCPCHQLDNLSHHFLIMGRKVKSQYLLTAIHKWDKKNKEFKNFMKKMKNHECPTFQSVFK

SFRP-1 [2] = target: T1, SFRP-1; assay: Cell-based assay for in vitro measurement of SFRP-1/SARP2 antagonist activity (U2OS cells co-transfected with 16x TCF-tk-Luciferase reporter, Wnt and hSFRP-1); conditions: for fold induction at 15 µM / fold induction at 10 µM: U2OS; for fold induction at 10 µM: read-out: Fold Induction with SFRP-1, U2OS cells, single dose 10 μM, luciferase reporter, fold induction over SFRP-1 control;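 for all read-outs here: U2OS cells co-transfected with a TCF-tk luciferase reporter, a Wnt vector, hSFRP-1 or empty vector and CMV-βgal, luciferase luminescence read in cell lysates alongside βgal activity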
[3] = read-out: Fold Induction with SFRP-1, Conc 15 μM, single dose, luciferase reporter, fold induction over SFRP-1 control, cells with SFRP-1
[4] = read-out: Fold Induction without SFRP-1, Conc 15 μM, single dose, luciferase reporter, cells without SFRP-1 (specificity control)
[5] = read-out: Fold Induction with SFRP-1, Conc 15 μM, with SFRP-1, fold induction over SFRP-1 control, single dose
[6] = read-out: Fold Induction without SFRP-1, Conc 15 μM, without SFRP-1, single dose

Question: For `CC(C)c1ccc(S(=O)(=O)c2cn(C)cn2)cc1S(=O)(=O)NCCc1ccccn1` [Example 513, 2-isopropyl-5-[(1-methyl-1H-imidazol-4-yl)sulfonyl]-N-(2-pyridin-2-ylethyl)benzenesulfonamide], which IC50 (SFRP-1 [1]) is on record?
Answer: 6000 nM

Question: And the fold induction at 15 µM (SFRP-1 [2]; [3])?
Answer: 2.2

Question: What about the fold induction at 15 µM (SFRP-1 [2]; [4]) of the same compound?
Answer: 1.2

Question: For `CC(C)c1ccc(S(=O)(=O)c2ccc(F)cc2)cc1S(=O)(=O)NCCn1ccnc1C(C)C` [Example 588, 5-[(4-fluorophenyl)sulfonyl]-2-isopropyl-N-[2-(2-isopropyl-1H-imidazol-1-yl)ethyl]benzenesulfonamide], which IC50 (SFRP-1 [1]) is on record?
Answer: 400 nM

Question: And the fold induction at 15 µM (SFRP-1 [2]; [3])?
Answer: 3.6

Question: What about the fold induction at 15 µM (SFRP-1 [2]; [4]) of the same compound?
Answer: 1.7

Question: Which IC50 (SFRP-1 [1]) does the source give for `CC[C@H](C)[C@@H](CO)Nc1ccc(S(=O)(=O)c2ccc(C)c(S(=O)(=O)NCCCn3ccnc3)c2)cc1` [Example 354, 5-[(4-{[(1S,2S)-1-(hydroxymethyl)-2-methylbutyl]amino}phenyl)sulfonyl]-N-[3-(1H-imidazol-1-yl)propyl]-2-methylbenzenesulfonamide] here?
Answer: 1400 nM

Question: What about the fold induction at 15 µM (SFRP-1 [2]; [5]) of the same compound?
Answer: 2.6

Question: What about the fold induction at 15 µM (SFRP-1 [2]; [6]) of the same compound?
Answer: 1

Question: With `CC(C)c1ccc(S(=O)(=O)c2ccc(N3C[C@@H](C)NC[C@@H]3C)cc2)cc1S(=O)(=O)NC1CCOCC1` (relative stereo) [Example 627, 5-({4-trans-2,5-dimethylpiperazin-1-ylphenyl}sulfonyl)-2-isopropyl-N-(tetrahydro-2H-pyran-4-yl)benzenesulfonamide] as the compound, how does the IC50 (SFRP-1 [1]) read?
Answer: 5000 nM

Question: What about the “Fold Induction with SFRP-1” value (SFRP-1 [2]; Conc 15 μM, single dose, luciferase reporter, fold induction over SFRP-1 control, cells with SFRP-1) of the same compound?
Answer: 3.4 fold

Question: What about the “Fold Induction without SFRP-1” value (SFRP-1 [2]; Conc 15 μM, single dose, luciferase reporter, cells without SFRP-1 (specificity control)) of the same compound?
Answer: 1.1 fold

Question: How did the IC50 (SFRP-1 [1]) turn out when `O=S(=O)(NCCc1ccncc1)c1cc(S(=O)(=O)c2ccccc2)ccc1C(F)(F)F` [Example 771, 5-(phenylsulfonyl)-N-(2-pyridin-4-ylethyl)-2-(trifluoromethyl)benzenesulfonamide] was run?
Answer: 80 nM

Question: And the EC50 (SFRP-1 [2])?
Answer: 733 nM

Question: And the fold induction at 10 µM (SFRP-1 [2])?
Answer: 3.5

Question: With `Cc1ccc(S(=O)(=O)c2ccccc2)cc1S(=O)(=O)NCCc1ccccn1` [Example 205, 2-methyl-5-(phenylsulfonyl)-N-(2-pyridin-2-ylethyl)benzenesulfonamide] as the compound, how does the IC50 (SFRP-1 [1]) read?
Answer: 3000 nM

Question: And the fold induction at 15 µM (SFRP-1 [2]; [5])?
Answer: 2.3

Question: And the fold induction at 15 µM (SFRP-1 [2]; [6])?
Answer: 0.8

Question: What does the source list for `CC(C)(C)NC(=O)N1CCC(NS(=O)(=O)c2cc(S(=O)(=O)c3ccccc3)ccc2Cl)CC1` [Example 649, N-(tert-butyl)-4-({[2-chloro-5-(phenylsulfonyl)phenyl]sulfonyl}amino)piperidine-1-carboxamide]?
Answer: IC50 (SFRP-1 [1]): 1600 nM; fold induction at 15 µM (SFRP-1 [2]; [3]): 3; fold induction at 15 µM (SFRP-1 [2]; [4]): 1.1

Question: Which IC50 (SFRP-1 [1]) does the source give for `CN(CCO)CCNS(=O)(=O)c1cc(S(=O)(=O)c2ccccc2)ccc1C(F)(F)F` [Example 905, N-{2-[(2-hydroxyethyl)(methyl)amino]ethyl}-5-(phenylsulfonyl)-2-(trifluoromethyl)benzenesulfonamide] here?
Answer: 2600 nM

Question: And the EC50 (SFRP-1 [2])?
Answer: 3660 nM

Question: And the fold induction at 10 µM (SFRP-1 [2])?
Answer: 1.5

Question: Which IC50 (SFRP-1 [1]) does the source give for `CN(CCNS(=O)(=O)c1cc(S(=O)(=O)c2ccccc2)ccc1C(F)(F)F)C(=O)c1ccc(CP(=O)(O)O)cc1` [Example 1036, [4-({methyl[2-({[5-(phenylsulfonyl)-2-(trifluoromethyl)phenyl]sulfonyl}amino)ethyl]amino}carbonyl)benzyl]phosphonic acid] here?
Answer: 800 nM

Question: And the EC50 (SFRP-1 [2])?
Answer: 7640 nM

Question: What does the source list for `O=C([C@@H]1CCCN1C(=O)c1ccc(Cl)nc1)N1CCC(NS(=O)(=O)c2cc(S(=O)(=O)c3ccccc3)ccc2C(F)(F)F)CC1` [Example 1079, N-(1-{1-[(6-chloropyridin-3-yl)carbonyl]-L-prolyl}piperidin-4-yl)-5-(phenylsulfonyl)-2-(trifluoromethyl)benzenesulfonamide]?
Answer: IC50 (SFRP-1 [1]): 40 nM; EC50 (SFRP-1 [2]): 329 nM

Question: Which IC50 (SFRP-1 [1]) does the source give for `N#CCCNS(=O)(=O)c1cc(S(=O)(=O)c2ccccc2)ccc1C(F)(F)F` [Example 679, N-(2-cyanoethyl)-5-(phenylsulfonyl)-2-(trifluoromethyl)benzenesulfonamide] here?
Answer: 250 nM

Question: And the EC50 (SFRP-1 [2])?
Answer: 449 nM

Question: What about the fold induction at 10 µM (SFRP-1 [2]) of the same compound?
Answer: 3.4

Question: How did the IC50 (SFRP-1 [1]) turn out when `CC(C)c1ccc(S(=O)(=O)c2ccc3[nH]ccc3c2)cc1S(=O)(=O)NCCc1ccccn1` [Example 540, 5-(1H-indol-5-ylsulfonyl)-2-isopropyl-N-(2-pyridin-2-ylethyl)benzenesulfonamide] was run?
Answer: 200 nM

Question: What about the fold induction at 15 µM (SFRP-1 [2]; [3]) of the same compound?
Answer: 3.6

Question: And the fold induction at 15 µM (SFRP-1 [2]; [4])?
Answer: 1.2

Question: With `CC(C)c1ccc(S(=O)(=O)c2cccc(C#N)c2)cc1S(=O)(=O)NCCc1ccccn1` [Example 539, 5-[(3-cyanophenyl)sulfonyl]-2-isopropyl-N-(2-pyridin-2-ylethyl)benzenesulfonamide] as the compound, how does the IC50 (SFRP-1 [1]) read?
Answer: 2600 nM

Question: And the fold induction at 15 µM (SFRP-1 [2]; [3])?
Answer: 2.9

Question: What about the fold induction at 15 µM (SFRP-1 [2]; [4]) of the same compound?
Answer: 1.2

Question: How did the IC50 (SFRP-1 [1]) turn out when `O=S(=O)(NCCc1cccnc1)c1cc(S(=O)(=O)c2ccccc2)ccc1Cl` [Example 640, 2-chloro-5-(phenylsulfonyl)-N-(2-pyridin-3-ylethyl)benzenesulfonamide] was run?
Answer: 1200 nM

Question: And the fold induction at 15 µM (SFRP-1 [2]; [3])?
Answer: 3.5

Question: What about the fold induction at 15 µM (SFRP-1 [2]; [4]) of the same compound?
Answer: 1.2

Question: Which results are given for `Cc1ccc(S(=O)(=O)c2ccccc2)cc1S(=O)(=O)NC1CCCC1` [Example 399, N-cyclopentyl-2-methyl-5-(phenylsulfonyl)benzenesulfonamide]?
Answer: IC50 (SFRP-1 [1]): 3000 nM; fold induction at 15 µM (SFRP-1 [2]; [5]): 2.5; fold induction at 15 µM (SFRP-1 [2]; [6]): 1.1

Question: How did the IC50 (SFRP-1 [1]) turn out when `CCOc1ccccc1S(=O)(=O)c1ccc(C)c(S(=O)(=O)NCCc2ccccn2)c1` [Example 420, 5-[(2-ethoxyphenyl)sulfonyl]-2-methyl-N-(2-pyridin-2-ylethyl)benzenesulfonamide] was run?
Answer: 8000 nM

Question: What about the fold induction at 15 µM (SFRP-1 [2]; [5]) of the same compound?
Answer: 2.4

Question: What about the fold induction at 15 µM (SFRP-1 [2]; [6]) of the same compound?
Answer: 1.3

Question: `O=C(O)CCC(=O)N1CCC(CNS(=O)(=O)c2cc(S(=O)(=O)c3ccccc3)ccc2C(F)(F)F)CC1` [Example 902, 4-oxo-4-{4-[({[5-(phenylsulfonyl)-2-(trifluoromethyl)phenyl]sulfonyl}amino)methyl]piperidin-1-yl}butanoic acid] was tested. Which IC50 (SFRP-1 [1]) did it give?
Answer: 180 nM

Question: What about the EC50 (SFRP-1 [2]) of the same compound?
Answer: 636 nM

Question: What about the fold induction at 10 µM (SFRP-1 [2]) of the same compound?
Answer: 3

Question: With `CN(CCNS(=O)(=O)c1cc(S(=O)(=O)c2ccccc2)ccc1C(F)(F)F)C(=O)N[C@H]1CCCNC1` [Example 1023, N-[2-(methyl{[(3S)-piperidin-3-ylamino]carbonyl}amino)ethyl]-5-(phenylsulfonyl)-2-(trifluoromethyl)benzenesulfonamide] as the compound, how does the IC50 (SFRP-1 [1]) read?
Answer: 210 nM

Question: What about the EC50 (SFRP-1 [2]) of the same compound?
Answer: 547 nM

Question: Which results are given for `O=S(=O)(NC1CCOCC1)c1cc(S(=O)(=O)c2cccc(O)c2)ccc1C(F)(F)F` [Example 744, 5-[(3-hydroxyphenyl)sulfonyl]-N-(tetrahydro-2H-pyran-4-yl)-2-(trifluoromethyl)benzenesulfonamide]?
Answer: IC50 (SFRP-1 [1]): 200 nM; EC50 (SFRP-1 [2]): 852 nM; fold induction at 10 µM (SFRP-1 [2]): 3.1

Question: With `O=S(=O)(NC[C@H](O)c1ccccc1)c1cc(S(=O)(=O)c2ccccc2)ccc1C(F)(F)F` [Example 773, N-[(2R)-2-hydroxy-2-phenylethyl]-5-(phenylsulfonyl)-2-(trifluoromethyl)benzenesulfonamide] as the compound, how does the IC50 (SFRP-1 [1]) read?
Answer: 1900 nM

Question: What about the EC50 (SFRP-1 [2]) of the same compound?
Answer: 1300 nM

Question: And the fold induction at 10 µM (SFRP-1 [2])?
Answer: 1.2

Question: For `O=C(c1cc(Cl)nc(Cl)c1)N1CCC(NS(=O)(=O)c2cc(S(=O)(=O)c3ccccc3)ccc2C(F)(F)F)CC1` [Example 857, N-[1-(2,6-dichloroisonicotinoyl)piperidin-4-yl]-5-(phenylsulfonyl)-2-(trifluoromethyl)benzenesulfonamide], which IC50 (SFRP-1 [1]) is on record?
Answer: 150 nM

Question: What about the EC50 (SFRP-1 [2]) of the same compound?
Answer: 1190 nM

Question: And the fold induction at 10 µM (SFRP-1 [2])?
Answer: 4.4

Question: For `O=C(c1ccnc(N2CCCC2)c1)N1CCC(NS(=O)(=O)c2cc(S(=O)(=O)c3ccccc3)ccc2C(F)(F)F)CC1` [Example 1029, 5-(phenylsulfonyl)-N-[1-(2-pyrrolidin-1-ylisonicotinoyl)piperidin-4-yl]-2-(trifluoromethyl)benzenesulfonamide], which IC50 (SFRP-1 [1]) is on record?
Answer: 140 nM

Question: What about the EC50 (SFRP-1 [2]) of the same compound?
Answer: 490 nM

Question: Which results are given for `O=S(=O)(N[C@H](CO)Cc1ccccc1)c1cc(S(=O)(=O)c2ccccc2)ccc1C(F)(F)F` [Example 720, N-[(1S)-1-benzyl-2-hydroxyethyl]-5-(phenylsulfonyl)-2-(trifluoromethyl)benzenesulfonamide]?
Answer: IC50 (SFRP-1 [1]): 6000 nM; fold induction at 10 µM (SFRP-1 [2]): 2

Question: Which results are given for `O=C(c1ccc(C(F)(F)F)cc1F)N1CCC(NS(=O)(=O)c2cc(S(=O)(=O)c3ccccc3)ccc2C(F)(F)F)CC1` [Example 710, N-{1-[2-fluoro-4-(trifluoromethyl)benzoyl]piperidin-4-yl}-5-(phenylsulfonyl)-2-(trifluoromethyl)benzenesulfonamide]?
Answer: IC50 (SFRP-1 [1]): 700 nM; fold induction at 10 µM (SFRP-1 [2]): 3.5

Question: What does the source list for `CN(CCNS(=O)(=O)c1cc(S(=O)(=O)c2ccccc2)ccc1C(F)(F)F)C(=O)NC(C)(C)C` [Example 829, N-{2-[[(tert-butylamino)carbonyl](methyl)amino]ethyl}-5-(phenylsulfonyl)-2-(trifluoromethyl)benzenesulfonamide]?
Answer: IC50 (SFRP-1 [1]): 400 nM; EC50 (SFRP-1 [2]): 1320 nM; fold induction at 10 µM (SFRP-1 [2]): 2.7

Question: Which IC50 (SFRP-1 [1]) does the source give for `O=S(=O)(NCCc1cccnc1)c1cc(S(=O)(=O)c2ccccc2)ccc1C(F)(F)F` [Example 677, 5-(phenylsulfonyl)-N-(2-pyridin-3-ylethyl)-2-(trifluoromethyl)benzenesulfonamide] here?
Answer: 160 nM

Question: And the EC50 (SFRP-1 [2])?
Answer: 489 nM

Question: What about the fold induction at 10 µM (SFRP-1 [2]) of the same compound?
Answer: 3.8
